# Where a name gives a salt, the structure may show the parent alone.
# Experiments:
# [1] = target: T1, human or rat M1 muscarinic receptors (Rattus norvegicus, UniProt P08482); test: Ca2+ mobilization (FluoForte) protocol in CHO cells expressing M1 receptors, pre- and post-carbachol phases; assay type: cell-based
# T1 construct: host or cells: CHO cells (M1WT3), whole cells
# T1 sequence (P08482 1-460): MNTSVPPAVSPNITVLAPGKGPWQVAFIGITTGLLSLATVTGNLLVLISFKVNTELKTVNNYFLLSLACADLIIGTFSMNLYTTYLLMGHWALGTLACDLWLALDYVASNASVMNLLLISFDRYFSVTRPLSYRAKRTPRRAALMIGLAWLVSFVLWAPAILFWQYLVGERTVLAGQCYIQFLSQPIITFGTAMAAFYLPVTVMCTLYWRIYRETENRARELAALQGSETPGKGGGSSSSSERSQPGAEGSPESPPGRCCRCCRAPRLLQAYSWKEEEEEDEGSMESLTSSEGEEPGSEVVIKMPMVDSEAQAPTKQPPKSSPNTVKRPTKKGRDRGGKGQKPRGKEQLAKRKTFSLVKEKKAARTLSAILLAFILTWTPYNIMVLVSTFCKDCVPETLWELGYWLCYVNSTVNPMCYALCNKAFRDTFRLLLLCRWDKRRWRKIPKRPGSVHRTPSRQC
# [2] = system: cognitively intact healthy participants; details: in vivo, iv
# Source text: Cambridge Neuropsychological Test Automated Battery (CANTAB-AD):
# Two main challenges are often encountered with many of the newer neurocognitive tasks. First is the lack of standardization in administering such tasks. Second is the lack of information on their psychometric properties. The Cambridge Neuropsychological Test Automated Battery (CANTAB) system addresses both of these challenges (www.cambridgecognition.com). The design of the CANTAB is based on well-established neurocognitive experimental paradigms. It was designed initially to provide componential analysis of cognitive functions in the elderly and individuals with dementia. The CANTAB Eclipse consists of 22 tasks that assess neurocognitive processes within a wide range of relatively independent cognitive domains, including visual memory, attention, working memory and problem solving. Each of the tasks is graded, allowing the assessment of patients with varying level of impairment. Increasing the difficulty of a task avoids a ceiling effect. Conversely, decreasing the difficulty of a task avoids a floor effect and allows the distinction between specific and generalized deficits (a concern discussed above). The tasks are automated and therefore testing is given in a standardized manner with a standardized feedback about accuracy and speed. […] Estimates of test-retest reliability and of practice effects are available for many of the CANTAB tasks based on an elderly sample with an age range of 60-80 years. The CANTAB has been used in a variety of clinical populations providing an opportunity to compare findings related to different disorders, including findings examining cognition in late-life bipolar disorder. Finally, the CANTAB tasks are independent of language and culture and can be used in population for whom English is not a primary language^46.
# Participants attended the Centre for Addiction and Mental Health on two separate occasions:
# Visit 2: Upon arrival at CAMH, participants were administered the CANTAB. An IV line was then set up by a research nurse and the first blood sample was taken. […] The CANTAB was completed once more. […] The qualified investigator or designate was available for the entirety of the study visit.
smiles,measurement,setting,value
"CN1[C@@H]2CC[C@H]1C[C@@H](OC(=O)C(CO)c1ccccc1)C2 (stereo partly shown) [Atropine, atropine]",effect of the antagonist alone on Ca2+ mobilization,[1],no effect on their own
same,effect on the agonist response (serum peak),[1],completely blocked this agonist response
"Clc1ccc2c(c1)N=C(N1CCNCC1)c1ccccc1N2 [NDMC, N-desmethylclozapine]",effect on Ca2+ mobilization in the pre-carbachol phase,[1],stronger effects than CLZ
same,effect on the carbachol response (post-carbachol phase),[1],virtually eliminated the carbachol response
"CN1[C@@H]2C[C@@H](OC(=O)[C@H](CO)c3ccccc3)C[C@H]1[C@@H]1O[C@@H]12 [scopolamine, Scopolamine Hydrobromide]","blc_pc difference score (Big/little circle, Percent correct)",[2],−0.8
same,"dms_pc difference score (Delayed matching to sample, Percent correct (all delays))",[2],−19.3
same,"dms_pcs difference score (Delayed matching to sample, Percent correct (simultaneous))",[2],4.4
same,"dms_pege difference score (Delayed matching to sample, Prob error given error)",[2],0.1
same,"pal_tea6 difference score (Paired associated learning, Total errors (6 shapes, adjusted))",[2],9.0
same,"pal_tea difference score (Paired associated learning, Total errors (adjusted))",[2],19.1
same,"rvp_a difference score (Rapid image visual processing, A′)",[2],−0.1
same,"soc_mitt5 difference score (Stocking of Cambridge, Mean initial thinking time (5 moves))",[2],−3055.0
same,"soc_mstt5 difference score (Stocking of Cambridge, Mean subsequent thinking time (5 moves))",[2],5139.3
same,"soc_psimm difference score (Stocking of Cambridge, Problems solved in minimum moves)",[2],−1.7
same,"swm_be difference score (Spatial working memory, Between errors)",[2],20.2
same,"swm_strat difference score (Spatial working memory, Strategy)",[2],3.1

# — patent US20220026427A1, “CELL BASED ASSAYS AND KITS FOR ASSESSING SERUM CHOLINERGIC RECEPTOR ACTIVITY” (Centre for Addiction and Mental Health, priority 2017, published 2022)
